Experimental findings from patent US9642831B2, “Substituted chromanes and method of use” (AbbVie S.á.r.l., priority 2014, dated 2017) are described below.

For this assay, the target named is F508delCFTR (Homo sapiens, UniProt P13569, DEL508-508). Description: Cell Surface Expression-Horse Radish Peroxidase (CSE-HRP) assay. It is filed as cell-based. Also on record: expressed in transfected cells; host or cells: CFBE41o- human lung derived epithelial cell line, doxycycline-inducible. The conditions noted are these: CFBE4lo-F508delCFTR-HRP cells; for EC50: 18-24 hours at 33° C., 8-point curve, highest concentration 20 μM, luminescence readout; for Emax: maximum % activity at any tested concentration, normalized to on-plate positive control (3 μM Example 1). In a few lines: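 Following 18-24 h compound exposure at 33° C. Expression was doxycycline-induced beforehand. % activity versus DMSO and a 3 μM corrector control gave maximum activity and EC50 from a variable-Hill sigmoidal fit.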
F508delCFTR, sequence (P13569 with tags, fused parts or gaps DEL508-508): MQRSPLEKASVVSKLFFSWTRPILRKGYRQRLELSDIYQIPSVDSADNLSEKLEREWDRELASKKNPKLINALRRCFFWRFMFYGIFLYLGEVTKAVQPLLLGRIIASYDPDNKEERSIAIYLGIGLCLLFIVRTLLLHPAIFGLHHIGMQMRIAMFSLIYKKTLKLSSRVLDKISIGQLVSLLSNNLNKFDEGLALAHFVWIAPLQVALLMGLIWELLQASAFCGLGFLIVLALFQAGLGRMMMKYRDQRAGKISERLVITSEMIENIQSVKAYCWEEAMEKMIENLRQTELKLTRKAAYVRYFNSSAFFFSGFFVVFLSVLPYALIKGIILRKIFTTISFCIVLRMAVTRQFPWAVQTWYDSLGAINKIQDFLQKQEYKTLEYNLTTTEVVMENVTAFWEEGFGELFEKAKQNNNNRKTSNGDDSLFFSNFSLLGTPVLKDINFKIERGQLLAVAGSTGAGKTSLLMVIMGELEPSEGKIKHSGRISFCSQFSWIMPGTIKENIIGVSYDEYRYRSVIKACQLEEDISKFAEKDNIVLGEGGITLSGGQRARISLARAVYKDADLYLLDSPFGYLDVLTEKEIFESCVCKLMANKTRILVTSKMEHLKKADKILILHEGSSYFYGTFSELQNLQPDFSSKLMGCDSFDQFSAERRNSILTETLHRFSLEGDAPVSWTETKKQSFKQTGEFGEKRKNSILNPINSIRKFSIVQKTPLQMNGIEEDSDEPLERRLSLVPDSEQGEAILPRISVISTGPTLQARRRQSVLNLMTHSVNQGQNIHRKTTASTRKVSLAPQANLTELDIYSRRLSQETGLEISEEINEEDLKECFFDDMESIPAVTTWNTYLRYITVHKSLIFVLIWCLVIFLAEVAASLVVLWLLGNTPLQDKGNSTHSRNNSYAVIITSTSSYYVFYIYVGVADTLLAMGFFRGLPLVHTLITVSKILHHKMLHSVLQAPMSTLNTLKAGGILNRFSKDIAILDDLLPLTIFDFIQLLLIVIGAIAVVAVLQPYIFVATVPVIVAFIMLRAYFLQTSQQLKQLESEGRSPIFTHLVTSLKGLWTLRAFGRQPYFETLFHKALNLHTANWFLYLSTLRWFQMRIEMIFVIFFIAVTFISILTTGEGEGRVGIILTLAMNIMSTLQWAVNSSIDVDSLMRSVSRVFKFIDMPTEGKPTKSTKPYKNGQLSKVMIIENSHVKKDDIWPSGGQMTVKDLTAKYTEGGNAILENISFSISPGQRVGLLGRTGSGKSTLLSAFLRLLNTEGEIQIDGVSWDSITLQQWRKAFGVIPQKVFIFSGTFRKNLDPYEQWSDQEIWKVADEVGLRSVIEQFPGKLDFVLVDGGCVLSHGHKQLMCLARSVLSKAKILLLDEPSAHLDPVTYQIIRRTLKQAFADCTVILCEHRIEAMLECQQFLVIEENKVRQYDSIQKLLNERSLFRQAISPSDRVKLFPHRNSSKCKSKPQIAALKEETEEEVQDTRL

What is called EC50 is the concentration needed to bring the measured effect to its halfway point. For orientation: Emax means the size of the effect at its maximum, as opposed to the concentration needed. Take `CS(=O)(=O)N1CCC2(CC1)CC(NC(=O)C1(c3ccc4c(c3)OC(F)(F)O4)CC1)c1ccc(F)cc1O2` (stereo not drawn) [Example 101, 1-(2,2-difluoro-1,3-benzodioxol-5-yl)-N-[7-fluoro-1′-(methylsulfonyl)-3,4-dihydrospiro[chromene-2,4′-piperidin]-4-yl]cyclopropanecarboxamide]: the response was half-maximal at 6.65 µM (EC50) and the Emax stood at 60%.
In the case of `CC(=O)N1CCC2(CC1)CC(NC(=O)C1(c3ccc4c(c3)OC(F)(F)O4)CC1)c1ccc(F)cc1O2` (stereo not drawn) [Example 102, N-(1′-acetyl-7-fluoro-3,4-dihydrospiro[chromene-2,4′-piperidin]-4-yl)-1-(2,2-difluoro-1,3-benzodioxol-5-yl)cyclopropanecarboxamide], the concentration for a half-maximal effect (EC50) was 4.86 µM and the Emax worked out at 89%.
The compound `O=C(NC1CC2(CNC2)Oc2cc(F)ccc21)C1(c2ccc3c(c2)OC(F)(F)O3)CC1` (stereo not drawn) [Example 103, 1-(2,2-difluoro-1,3-benzodioxol-5-yl)-N-(7′-fluoro-3′,4′-dihydrospiro[azetidine-3,2′-chromen]-4′-yl)cyclopropanecarboxamide] gave an EC50 of 8.53 µM and an Emax of 28%.
For `CS(=O)(=O)N1CC2(CC(NC(=O)C3(c4ccc5c(c4)OC(F)(F)O5)CC3)c3ccc(F)cc3O2)C1` (stereo not drawn) [Example 104, 1-(2,2-difluoro-1,3-benzodioxol-5-yl)-N-[7′-fluoro-1-(methylsulfonyl)-3′,4′-dihydrospiro[azetidine-3,2′-chromen]-4′-yl]cyclopropanecarboxamide] the same measures were 6.58 µM and 49%.
In turn, `CC(=O)N1CC2(CC(NC(=O)C3(c4ccc5c(c4)OC(F)(F)O5)CC3)c3ccc(F)cc3O2)C1` (stereo not drawn) [Example 105, N-(1-acetyl-7′-fluoro-3′,4′-dihydrospiro[azetidine-3,2′-chromen]-4′-yl)-1-(2,2-difluoro-1,3-benzodioxol-5-yl)cyclopropanecarboxamide] returned an EC50 of 7.46 µM and an Emax of 34%.
For the compound `O=C(O)c1cccc([C@H]2C[C@@H](NC(=O)C3(c4ccc5c(c4)OC(F)(F)O5)CC3)c3ccc(OCCF)cc3O2)c1` [Example 106, 3-[(2R,4R)-4-({[1-(2,2-difluoro-1,3-benzodioxol-5-yl)cyclopropyl]carbonyl}amino)-7-(2-fluoroethoxy)-3,4-dihydro-2H-chromen-2-yl]benzoic acid], it took 0.31 µM to reach a half-maximal effect (EC50) and the Emax turned out to be 88%.
For `COc1ccc2c(c1)OC1(CCN(C(=O)C(C)(C)CO)CC1)CC2NC(=O)C1(c2ccc3c(c2)OC(F)(F)O3)CC1` (stereo not drawn) [Example 107, 1-(2,2-difluoro-1,3-benzodioxol-5-yl)-N-[1′-(3-hydroxy-2,2-dimethylpropanoyl)-7-methoxy-3,4-dihydrospiro[chromene-2,4′-piperidin]-4-yl]cyclopropanecarboxamide] the same measures were 1.13 µM and 99%.
For `COC(=O)c1ccc([C@H]2C[C@@H](NC(=O)C3(c4ccc5c(c4)OC(F)(F)O5)CC3)c3ccc(OC)cc3O2)cc1` [Example 110, methyl 4-[(2R,4R)-4-({[1-(2,2-difluoro-1,3-benzodioxol-5-yl)cyclopropyl]carbonyl}amino)-7-methoxy-3,4-dihydro-2H-chromen-2-yl]benzoate] the same measures were 0.28 µM and 115%.
For the compound `COc1ccc2c(c1)OC(C1CNC1)CC2NC(=O)C1(c2ccc3c(c2)OC(F)(F)O3)CC1` (stereo not drawn) [Example 116, N-[2-(azetidin-3-yl)-7-methoxy-3,4-dihydro-2H-chromen-4-yl]-1-(2,2-difluoro-1,3-benzodioxol-5-yl)cyclopropanecarboxamide], the EC50 was 7.64 µM and the Emax was determined as 59%.
The compound `COC(=O)c1ccc([C@H]2C[C@@H](NC(=O)C3(c4ccc5c(c4)OC(F)(F)O5)CC3)c3ccccc3O2)cc1` [Example 120, methyl 4-[(2R,4R)-4-({[1-(2,2-difluoro-1,3-benzodioxol-5-yl)cyclopropyl]carbonyl}amino)-3,4-dihydro-2H-chromen-2-yl]benzoate] displayed an EC50 of 0.5 µM and an Emax of 110%.
For `COC(=O)c1ccc([C@H]2C[C@@H](NC(=O)C3(c4ccc5c(c4)OC(F)(F)O5)CC3)c3ccc(OC(F)F)cc3O2)cc1` [Example 123, methyl 4-[(2R,4R)-4-({[1-(2,2-difluoro-1,3-benzodioxol-5-yl)cyclopropyl]carbonyl}amino)-7-(difluoromethoxy)-3,4-dihydro-2H-chromen-2-yl]benzoate] the same measures were 0.05 µM and 115%.
For the compound `CC1(C)CC(NC(=O)C2(c3ccc4c(c3)OC(F)(F)O4)CC2)c2ccc(O)cc2O1` (stereo not drawn) [Example 124, 1-(2,2-difluoro-1,3-benzodioxol-5-yl)-N-(7-hydroxy-2,2-dimethyl-3,4-dihydro-2H-chromen-4-yl)cyclopropanecarboxamide], the EC50 was 6.76 µM and the Emax was 26%.
With `CC1(C)CC(NC(=O)C2(c3ccc4c(c3)OC(F)(F)O4)CC2)c2ccc(OC(F)F)cc2O1` (stereo not drawn) [Example 125, 1-(2,2-difluoro-1,3-benzodioxol-5-yl)-N-[7-(difluoromethoxy)-2,2-dimethyl-3,4-dihydro-2H-chromen-4-yl]cyclopropanecarboxamide], the EC50 is 2.14 µM and the Emax was found to be 115%.
For `COc1ccc2c(c1)OC(C1CCCO1)CC2NC(=O)C1(c2ccc3c(c2)OC(F)(F)O3)CC1` (stereo not drawn) [Example 126, 1-(2,2-difluoro-1,3-benzodioxol-5-yl)-N-[7-methoxy-2-(tetrahydrofuran-2-yl)-3,4-dihydro-2H-chromen-4-yl]cyclopropanecarboxamide] the same measures were 1.38 µM and 79%.
In turn, `COC(=O)c1ccc([C@H]2C[C@@H](NC(=O)C3(c4ccc5c(c4)OC(F)(F)O5)CC3)c3ccc(O)cc3O2)cc1` [Example 127, methyl 4-[(2R,4R)-4-({[1-(2,2-difluoro-1,3-benzodioxol-5-yl)cyclopropyl]carbonyl}amino)-7-hydroxy-3,4-dihydro-2H-chromen-2-yl]benzoate] registered an EC50 of 2.81 µM and an Emax of 65%.
`O=C(O)c1ccc([C@H]2C[C@@H](NC(=O)C3(c4ccc5c(c4)OC(F)(F)O5)CC3)c3ccc(O)cc3O2)cc1` [Example 128, 4-[(2R,4R)-4-({[1-(2,2-difluoro-1,3-benzodioxol-5-yl)cyclopropyl]carbonyl}amino)-7-hydroxy-3,4-dihydro-2H-chromen-2-yl]benzoic acid] displayed an EC50 of 4.57 µM and an Emax of 66%.
Turning to `COc1ccc2c(c1)OC1(CC(C(=O)O)C1)CC2NC(=O)C1(c2ccc3c(c2)OC(F)(F)O3)CC1` (stereo not drawn) [Example 129, 4-({[1-(2,2-difluoro-1,3-benzodioxol-5-yl)cyclopropyl]carbonyl}amino)-7-methoxy-3,4-dihydrospiro[chromene-2,1′-cyclobutane]-3′-carboxylic acid], the EC50 amounted to 6.2 µM and the Emax was 44%.
The compound `COC(=O)c1ccc([C@H]2C[C@@H](NC(=O)C3(c4ccc5c(c4)OC(F)(F)O5)CC3)c3ccc(OC)cc3O2)cc1F` [Example 137, methyl 4-[(2R,4R)-4-({[1-(2,2-difluoro-1,3-benzodioxol-5-yl)cyclopropyl]carbonyl}amino)-7-methoxy-3,4-dihydro-2H-chromen-2-yl]-2-fluorobenzoate] had an EC50 of 0.14 µM and an Emax of 131%.
